# US7279325B2, “Method for identifying antagonist compounds of the estrogen-related receptor 3 (ERR3) by using the x-ray structural coordinates of the ligand binding domain” (priority 2002, dated 2007)
# Entries after “also recorded” stand apart in the source; their conditions may differ.
# Tests used:
# [1] = test system: Gal4-ERR3 mutants (A272F, A272L, F435L, L345I-F435L-F450L); test: Transient transfection luciferase reporter assay, Gal4-ERR3 mutants in COS-1 cells; assay type: cell-based, human; details: 10^−6M 4-OHT
# Method: (§1) FIG. 6: represents the transcriptional activities of wild-type and mutant ERR3 fusion proteins in transient transfection assays, wherein (A) COS-1 cells were transfected in 24-well plates with 250 ng per well of Gal4(5×)-TATA-LUC reporter and 50 ng of wt or mutant pCMX-Gal4-ERR3 expression plasmid. […] (B) Experiments were performed as described in (A) using 250 ng per well of Gal4(3×)-TK-LUC reporter plasmid and 50 ng of wt or mutant Gal4-ERR3 expression plasmid. […] FIGS. A to C represent an average of three independent experiments. The activity of the Gal4 DBD control was set to one.
# (§2) COS-1 and BHK cells were cultured in DMEM supplemented with 5% FCS, penicillin, streptomycin, and glutamine. Neuro2A cells were cultured in EMEM supplemented with 10% FCS, penicillin, streptomycin, glutamine, and non-essential amino acids. Transient transfection assays were carried out in 24-well plates (0.5×10^5 cells per well for COS-1 and Neuro2A cells, 0.25×10^5 cells per well for BHK cells) using the standard calcium phosphate coprecipitation technique as described in Greiner et al. (Greiner et al., 1996). Cells were transfected with 250 ng of Gal4(5×)-TATA-LUC, Gal4(3×)-TK-LUC, or ERE(2×)-TK-LUC reporter plasmid and 50 ng per well of pCMX-Gal4-ERR3 or pCMX-ERR3 expression plasmid. The empty plasmids pCMX-Gal4 and pCMX served as control. […]
# ERR3 = target: T1, ERR3 (Homo sapiens, UniProt P62508); details: Coward et al. (2001); cited from earlier work
# T1 sequence (P62508 1-458): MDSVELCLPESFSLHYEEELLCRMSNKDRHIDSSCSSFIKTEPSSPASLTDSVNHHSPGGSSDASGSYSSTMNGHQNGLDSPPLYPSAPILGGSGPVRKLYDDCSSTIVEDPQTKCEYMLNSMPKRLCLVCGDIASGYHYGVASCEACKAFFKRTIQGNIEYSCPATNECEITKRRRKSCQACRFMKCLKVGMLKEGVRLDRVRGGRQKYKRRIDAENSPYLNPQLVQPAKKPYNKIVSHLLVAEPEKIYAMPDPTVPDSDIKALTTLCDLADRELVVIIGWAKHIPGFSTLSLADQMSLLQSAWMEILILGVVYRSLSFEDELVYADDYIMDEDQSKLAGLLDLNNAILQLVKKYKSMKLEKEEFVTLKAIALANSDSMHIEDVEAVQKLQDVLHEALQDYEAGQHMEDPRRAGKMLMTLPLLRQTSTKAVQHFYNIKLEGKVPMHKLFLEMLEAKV
# ERR2 = target: T2, ERR2 (Homo sapiens, UniProt O95718); details: Coward et al. (2001); cited from earlier work
# T2 sequence (O95718 1-433): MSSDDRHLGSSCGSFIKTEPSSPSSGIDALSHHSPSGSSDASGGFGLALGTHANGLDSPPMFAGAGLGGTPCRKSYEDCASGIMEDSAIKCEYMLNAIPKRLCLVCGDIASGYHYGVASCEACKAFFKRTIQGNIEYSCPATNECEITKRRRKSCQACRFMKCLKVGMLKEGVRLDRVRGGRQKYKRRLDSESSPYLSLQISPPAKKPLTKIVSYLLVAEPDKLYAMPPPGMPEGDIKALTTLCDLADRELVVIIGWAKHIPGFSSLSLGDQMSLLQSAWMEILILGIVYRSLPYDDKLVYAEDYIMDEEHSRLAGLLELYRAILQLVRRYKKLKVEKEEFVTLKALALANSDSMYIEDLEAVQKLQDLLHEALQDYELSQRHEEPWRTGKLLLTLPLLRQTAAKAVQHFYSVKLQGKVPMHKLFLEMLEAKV
# [2] = target: T3, ERR3 LBD/GST-SRC-1 RID complex (Homo sapiens, UniProt P62508); test: In vitro protein-protein interaction assay, wt ERR3 LBD with SRC-1 RID (native gels); assay type: biochemical; details: 10^−4M ligand
# T3 construct: wt or mutant ERR3 LBDs (residues 229 to 458, human and murine receptor are identical); made in house; host or cells: E. coli BL21(DE3)
# T3 sequence (P62508 229-458): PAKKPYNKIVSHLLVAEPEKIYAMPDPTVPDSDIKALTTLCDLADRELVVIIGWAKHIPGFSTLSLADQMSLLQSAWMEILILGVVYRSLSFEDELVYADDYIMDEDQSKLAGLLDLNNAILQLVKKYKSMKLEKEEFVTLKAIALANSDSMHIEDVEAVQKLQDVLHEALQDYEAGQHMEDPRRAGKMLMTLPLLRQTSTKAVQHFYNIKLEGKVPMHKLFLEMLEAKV
# Method: The His-tagged wt or mutant ERR3 LBDs, the GST-tagged SRC-1 RID, and GST were expressed in E. coli BL21(DE3) and partially purified by affinity chromatography using TALON (Clontech) or Glutathione Sepharose 4B (Pharmacia), respectively. […] After purification the proteins were dialyzed in assay buffer (20 mM Tris.HCl pH 8.0, 200 mM NaCl), and concentrated. For the protein-protein interaction assays […] (about 70 pmol) of His-tagged wt or mutant ERR3 LBD were mixed with […] (about 100 pmol) of GST-tagged SRC-1 RID or […] of GST and incubated on ice for 10 mins. […] Protein complexes were resolved on native polyacrylamide gradient gels (8%-25%) using the Phast System (Pharmacia).
# In vitro interaction assays with the RID (amino acids 617-764) of the coactivator SRC-1 has first been performed. Hexahistidine (His)-tagged ERR3, LBD and GST-tagged SRC-1 RID were partially purified by affinity chromatography, the proteins were mixed, and complex formation was monitored on native polyacrylamide gels. […] Complexes were separated on native polyacrylamide gradient gels.
# Gal4-ERR3 = target: T4, Gal4-ERR3 (Homo sapiens, UniProt P62508); test: Transient transfection luciferase reporter assay, Gal4-ERR3 in COS-1 cells; assay type: cell-based
# T4 construct: expressed in transfected cells; host or cells: COS-1
# T4 sequence (P62508 229-458): T3 sequence (P62508 229-458)
# Method: as §1, §2
substance,measurement,setting,value
4-hydroxytamoxifen [4-OHT],transcriptional activity of Gal4-ERR3(F435L) and Gal4-ERR3(L345I-F435L-F450L),[1],antagonizes
same,transactivation / transcriptional activity mediated by ERR3,ERR3,repressed; also recorded: selectively block
same,binding to ERR2,ERR2,binds
same,conformational change of the ERR3 LBD (migration on native gels),[2]; native gels,retarded
same,effect on the complex between the wt ERR3 LBD and GST-SRC-1 RID,[2]; native polyacrylamide gradient gels,specifically disrupted
same,activity of Gal4-ERR3,"Gal4-ERR3; 10^−6M 4-OHT, Gal4(5×)-TATA-LUC reporter",blocked efficiently
same,repression of the constitutive activity of Gal4-ERR3 below basal levels of the TK promoter,Gal4-ERR3; Gal4(3×)-TK-LUC reporter,neither 4-OHT nor DES repress
